Experiments:
[1] = test system: Spontaneously hypertensive rats (SHR); test: Antihypertensive activity on spontaneously hypertensive rats (SHR); assay type: in vivo, rat; details: for Mean arterial pressure % reduction: SHR
Description: All the compounds of formula (I) have antihypertensive activity on Spontaneously hypertensive rats (SHR), as clearly shown by the results reported in the following Table III.

[2] = test system: mouse; test: Locomotor activity in the mouse; assay type: in vivo
[3] = test system: guinea pig platelet; test: In vitro guinea pig platelet aggregation induced by ADP; assay type: cell-based; details: guinea pig platelets
[4] = test system: rat seminal vesicle; test: Adrenolytic activity in the rat seminal vesicle test in vitro
Description: Most of the compounds of formula (I) have a marked adrenolytic activity in the rat seminal vesicle test in vitro.

[5] = test system: isolated uterus of female rat; test: Antiserotonin activity in vitro on isolated uterus of female rat; details: for ED₅₀: antiserotonin activity, isolated uterus of female rat
Description: All the compounds of the invention have a marked antiserotonin activity in vitro test on isolated uterus of female rat.

[6] = test system: reserpinized rat; test: Antihyperprolactinemic activity in the reserpinized rat; assay type: in vivo; details: for Plasmatic prolactin % reduction: reserpinized rat
[7] = test system: rat; test: Stereotypy test in the rat; assay type: in vivo; details: dose 10 mg/kg i.p.
[8] = After 1 hour, dose 0.25 mg/kg os
[9] = After 2 hours, dose 0.50 mg/kg os

Row | Compound | Mean arterial pressure % reduction ([1]; dose = 1 mg/kg i.p.) [%] | Mean arterial pressure % reduction ([1]; dose = 3 mg/kg i.p.) [%] | hypotensive / antihypertensive activity ([1]; result in words) | % inhibition ([2]; dose 20 mg/kg i.p.) [%] | Platelet aggregation % reduction ([3]; Dose 40 mcg/ml) [%] | ED₅₀ [4] [µg/mL] | ED₅₀ [5] [µg/mL] | antiserotonin activity ([5]; result in words) | Plasmatic prolactin % reduction [6, 8] [%] | Plasmatic prolactin % reduction [6, 9] [%] | antihyperprolactinemic activity ([6]; result in words) | % inhibition ([2]; dose 10 mg/kg i.p.) [%] | Platelet aggregation % reduction ([3]; Dose 80 mcg/ml) [%] | Mean score [7]
1 | CN(C[C@@H]1C=C2c3cccc4[nH]cc(c34)C[C@H]2N(C)C1)C1CC1 [P 1427, N-methyl-N-cyclopropyl-9,10-didehydro-6-methylergoline-8β-methanamine] | 35.6 | 32.4 | high | 92.7 | 25 | 0.70 | 0.004 | high | 67.2 | 86.6 | interesting |  |  | 
2 | α-Bromocryptine [reference compound] |  |  |  |  |  |  | 0.470 |  | 78.2 | 80.9 |  | 78.7 | 25 | 2.25

From patent EP0411494A2, “Ergoline derivatives having dopaminergic activity” (priority 1989, dated 1991)
